Entries after “also recorded” stand apart in the source; their conditions may differ. Counter-ions that a name gives are not always drawn. Like-named read-outs stand apart in the source and are kept apart here.
How the values were obtained:
i-NOS = i-NOS (Homo sapiens, UniProt P35228); experiment: Comparison of i-NOS inhibition with NIL amide and NIL dimethylamide; type: biochemical
[1] = system: nitrite production in human cartilage explants; experiment: Human cartilage explant assay (nitrite production after IL-1β); type: cell-based; conditions: inhibition of nitrite production, IL-1β-stimulated explants
Protocol: Human cartilage Explant Assay
Bone pieces are rinsed twice with Dulbecco's Phosphate Buffered Saline (GibcoBRL) and once with Dulbecco's Modified Eagles Medium (GibcoBRL) and placed into a petri dish with phenol red free Minimum Essential Medium (MEM) (GibcoBRL). Cartilage was cut into small explants of approximately 15-45 mg in weight and one or two explants per well are placed into either 96 or 48 well culture plates with 200-500 μL of culture media per well. The culture media was either a custom modification of Minimum Essential Medium(Eagle) with Earle's salts (GibcoBRL) prepared without L-Arginine, without L-Glutamine and without phenol red or a custom modification of serumless Neuman and Tytell (GibcoBRL) medium prepared without L-arginine, without insulin, without ascorbic acid, without L-glutamine and without phenol red. Both are supplemented before use with 100 μM L-Arginine (Sigma), 2 mM L-glutamine, 1×HL-1 supplement (BioWhittaker), […] ascorbic acid (Sigma) and 150 pg/ml recombinant human IL-1[…] (RD Systems) to induce nitric oxide synthase. Compounds are then added in 10 μL aliquots and the explants incubated at 37° C. with 5% CO2 for 18-24 hours. The day old supernatant is then discarded and replaced with fresh culture media containing recombinant human IL-1β and compound and incubated for another 20-24 hours. […] All samples are done in quadruplicate. Unstimulated controls are cultured in media in the absence of recombinant human IL-1β. IC50 values (Table I) are determined from plotting the percent inhibition of nitrite production at six different concentrations of inhibitor.

airway inflammation = conditions: murine model of allergic asthma; by down-regulation of chemokine expression; cited from earlier work
[2] = system: LPS-induced increase in plasma nitrite/nitrate levels; experiment: In vivo assay: endotoxin (LPS)-treated rats, plasma nitrite/nitrate; set-up: species or system rat; conditions: oral administration, plasma nitrite/nitrate 5 hours post-treatment
Protocol: Plasma nitrite/nitrate levels can be determined 5 hours post-treatment.

[3] = system: exhaled breath nitric oxide (NO); experiment: Clinical study: exhaled breath NO after single oral dose; type: in vivo, human
Protocol: (§1) A single center study was performed at the National Heart and Lung Institute (NHLI) Clinical Studies Unit in London, UK. The clinical protocol was submitted and accepted by the Ethics Committee of the Royal Brompton Hospital Trust, and the study was carried out according to Good Clinical Practice standards. Each subject provided written informed consent.
(§2) Twenty-four, adult, healthy volunteers and 24 patients with mild asthma participated in this study. All subjects were lifelong non-smokers. Asthma patients (n=24) had mild asthma according to American Thoracic Society Criteria, with medication on an as required basis with inhaled albuterol only. […] All asthmatic patients had baseline exhaled breath NO levels of >15 parts per billion (ppb). Healthy control (n=24) subjects were matched for age and sex, and had no clinically significant disease. Healthy subjects were required to have baseline exhaled NO levels between 4 and 9 ppb.
The study included 2 panels of healthy volunteers and asthmatic patients who received in a double-blind, randomized manner, a single dose of oral compound NN or placebo. The study was carried out in two phases according to the dose of compound NN under investigation. […] The study evaluated the tolerability and pharmacokinetics of orally-administered compound NN and monitored levels of exhaled breath NO.
Measurement of exhaled NO: Exhaled NO was measured using a chemoluminescence analyzer (Logan 2000, Rochester, UK) and methods in accordance with International Guidelines. […] Two successive recordings were taken, and the average value was calculated.
Statistical methods for clinical data: Exhaled NO data, including change from baseline and the percentage change, were tested for normality using the Shapiro-Wilks test. […] The area under the curve (AUC) for the change from baseline and the percentage change, and the differences between active and placebo were calculated. […]

[4] = Clinical study: tolerability, FEV1, blood pressure, heart rate, laboratory parameters; type: in vivo, human
Protocol: as §1, §2
The study included 2 panels of healthy volunteers and asthmatic patients who received in a double-blind, randomized manner, a single dose of oral compound NN or placebo. The study was carried out in two phases according to the dose of compound NN under investigation. The first panel consisted of patients with mild-to-moderate asthma (n=12) and healthy subjects (n=12) who received single doses of 20 mg of compound NN and placebo, while the second panel of mild-to-moderate asthmatics (n=12) and healthy subjects (n=12) received single doses of 200 mg of compound NN and placebo. No patient or subject participated in both panels of this study. Evaluation of the first panel was completed before moving on to the second panel. The study evaluated the tolerability and pharmacokinetics of orally-administered compound NN and monitored levels of exhaled breath NO.
Forced expiratory volume in 1 sec (FEV1) and heart rate data had no significant deviations from normality using the Shapiro-Wilks test, therefore parametric statistical methods were used, and the significance of the change from baseline was tested using a paired […]. […]

exhaled NO = conditions: high doses, literature; cited from earlier work
[5] = Rattus norvegicus, read-out: ED50

Sequence of i-NOS (P35228 whole entry): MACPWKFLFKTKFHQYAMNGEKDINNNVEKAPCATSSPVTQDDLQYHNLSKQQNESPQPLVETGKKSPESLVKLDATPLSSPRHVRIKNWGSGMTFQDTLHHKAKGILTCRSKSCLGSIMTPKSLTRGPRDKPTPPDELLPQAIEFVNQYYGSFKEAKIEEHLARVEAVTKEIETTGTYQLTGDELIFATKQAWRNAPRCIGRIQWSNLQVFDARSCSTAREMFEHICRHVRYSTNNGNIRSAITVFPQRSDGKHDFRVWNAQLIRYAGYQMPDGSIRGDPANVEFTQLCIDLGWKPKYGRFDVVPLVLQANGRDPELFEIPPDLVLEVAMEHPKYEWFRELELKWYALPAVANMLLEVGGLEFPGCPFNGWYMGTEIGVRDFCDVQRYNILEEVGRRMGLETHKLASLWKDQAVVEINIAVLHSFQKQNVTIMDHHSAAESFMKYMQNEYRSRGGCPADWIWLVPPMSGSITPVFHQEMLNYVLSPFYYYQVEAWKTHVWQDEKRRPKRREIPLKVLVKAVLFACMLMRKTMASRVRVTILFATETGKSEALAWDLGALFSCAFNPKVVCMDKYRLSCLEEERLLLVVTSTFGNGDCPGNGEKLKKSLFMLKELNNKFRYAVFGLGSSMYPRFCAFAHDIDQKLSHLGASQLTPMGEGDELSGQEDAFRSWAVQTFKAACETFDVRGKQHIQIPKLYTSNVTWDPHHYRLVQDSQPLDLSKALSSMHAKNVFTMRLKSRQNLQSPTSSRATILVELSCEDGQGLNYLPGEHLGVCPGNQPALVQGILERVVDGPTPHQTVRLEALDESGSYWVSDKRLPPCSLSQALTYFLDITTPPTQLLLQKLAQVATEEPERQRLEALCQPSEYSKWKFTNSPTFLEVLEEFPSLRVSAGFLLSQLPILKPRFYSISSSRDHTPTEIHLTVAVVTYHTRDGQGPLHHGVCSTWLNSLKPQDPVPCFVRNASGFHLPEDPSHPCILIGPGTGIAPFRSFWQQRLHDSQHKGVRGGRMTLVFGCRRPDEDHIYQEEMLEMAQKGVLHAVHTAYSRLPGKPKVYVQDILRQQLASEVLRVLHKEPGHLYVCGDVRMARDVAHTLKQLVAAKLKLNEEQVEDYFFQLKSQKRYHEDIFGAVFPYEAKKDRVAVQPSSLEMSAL

Compound	IC50 ([1]; Homo sapiens) [nM]	ED50 [2, 5] [mg/kg]	other results
2S-amino-6-[(1-iminoethyl)amino]-N-(1H-tetrazol-5-yl) hexanamide, hydrate, dihydrochloride [Example NN]			selectivity compared with NIL amide or NIL dimethylamide (i-NOS): more selective
CC(=N)NCC(F)=CCC[C@H](N)C(=O)O (mixture of isomers) [Example B, (2S,5E/Z)-2-amino-6-fluoro-7-[(1-iminoethyl)amino]-5-heptenoic acid, Dihydrochloride]	200		
CC1CCN=C(N)S1 (stereo not shown) [2-amino 5,6-dihydro 6-methyl 4H-1,3-thiazine]			effect on airway inflammation (airway inflammation): suppressed airway inflammation
CC(=N)NC/C(F)=C\CC[C@H](N)C(=O)O [Example A, (2S,5E)-2-amino-6-fluoro-7-[(1-iminoethyl)amino]-5-heptenoic acid, dihydrochloride, monohydrate]	100	< 0.1	ED50 ([2]; dihydrochloride, monohydrate): <0.1 mg/kg
CC(=N)NC/C(F)=C/CC[C@H](N)C(=O)O [Example D, (2S,5Z)-2-amino-6-fluoro-7-[(1-iminoethyl)amino]-5-heptenoic acid, trihydrochloride, dihydrate]	2500	> 10	
CC(=NO)NC/C(F)=C\CC[C@H](N)C(=O)O [Example G, (2S,5E)-2-amino-6-fluoro-7-[(1-hydroximinoethyl)amino]-5-heptenoic acid]		< 0.1	melting point: 198 to 200 °C
CC(=N)NC/C(F)=C\CC[C@H](N)C(=O)Nc1nnn[nH]1 [Example H, (2S,5E)-2-amino-6-fluoro-7-[(1-iminoethyl)amino]-N-(1H-tetrazol-5-yl) 5-heptenamide, Dihydrochloride]		< 0.3	
CC(=N)NC/C(F)=C\CC[C@](C)(N)C(=O)O [Example HH, (2S,5E)-2-amino-2-methyl-6-fluoro-7-[(1-iminoethyl)amino]-5-heptenoic acid, Dihydrochloride]	400	0.4	
COC[C@](N)(CSCCNC(C)=N)C(=O)O [Example J, 2-[[[2-[(1-Iminoethyl)amino]ethyl]thio]methyl]-O-methyl-D-serine, Dihydrochloride]			IC50 [1]: 8200 nM
CC(=N)NC/C=C\CC[C@](C)(N)C(=O)O.Cl.Cl [Example LL, (2S,5Z)-2-amino-2-methyl-7-[(1-iminoethyl)amino]-5-heptenoic acid, Dihydrochloride]	800	0.3	
CC(=N)NCCCC[C@H](N)C(=O)Nc1nnn[nH]1 [Example NN, 2S-amino-6-[(1-iminoethyl)amino]-N-(1H-tetrazol-5-yl) hexanamide, hydrate, dihydrochloride]			change in exhaled NO ([3]; 20 mg and 200 mg single oral doses, healthy volunteers and asthmatics, 72 hour assessment, FIG. 3, hydrate, dihydrochloride): rapid reduction in exhaled NO; also recorded: of rapid onset and dose-related; inhibition of exhaled NO ([3]; 200 mg single oral dose, asthma): 95%; duration of decrease in exhaled breath NO ([3]; single oral dose, healthy volunteers and asthmatics): 3 days; effects on heart rate, blood pressure and FEV1 ([4]; 200 mg oral, FIG. 4): no apparent effects; effect on haematology or blood biochemistry ([4]; single oral dose): no effect; tolerability ([4]; single oral dose, healthy volunteers and asthmatics, FIG. 4): well tolerated; i-NOS inhibitory potency compared with NIL amide or NIL dimethylamide (i-NOS): more potent
N=C1CCCC[C@H](CCCC[C@@H](N)C(=O)O)N1 [Example V, (α,2S)-.α-aminohexahydro-7-imino-1H-azepine-2-hexanoic acid, Trihydrate Hydrochloride]	< 10000	< 3	
N=C1CCCC[C@@H](CCCC[C@H](N)C(=O)O)N1 [Example W, (αS,2R)-α-aminohexahydro-7-imino-1 H-azepine-2-hexanoic acid, Trihydrate Hydrochloride]	> 30000	> 10	
N=C1CCCC[C@H](CCCC[C@H](N)C(=O)O)N1 [Example X, (αS,2S)-α-aminohexahydro-7-imino-1H-azepine-2-hexanoic acid, Trihydrate Hydrochloride]			IC50 [1]: < 10000 nM
Cl.N=C1CCCC[C@H](CCCC[C@@H](N)C(=O)O)N1.O.O.O [Example Y, (αR,2S)-α-aminohexahydro-7-imino-1H-azepine-2-hexanoic acid, Trihydrate Hydrochloride]		< 3	
N=C1CCCC[C@H](CCCC[C@H](N)C(=O)O)N1 [Example Z, (αS,2S)-α-aminohexahydro-7-imino-1H-azepine-2-hexanoic acid, Trihydrate Hydrochloride]	< 10000		
COC(=O)[C@@H](N)CCCNC(=N)N[N+](=O)[O-] [L-NAME]			inhibition of exhaled NO (exhaled NO): approximately 70%; effect on airway inflammation (airway inflammation): suppressed airway inflammation
CCSC(=N)N [S-ethylisothiourea]			effect on airway inflammation (airway inflammation): suppressed airway inflammation
N=C(N)NN [amino-guanidine]			inhibition of exhaled NO (exhaled NO): approximately 70%

From patent US20040077639A1, “Methods for the treatment of respiratory diseases and conditions using a selective iNOS inhibitor” (priority 2002, published 2004)
